From patent US20250388810A1, “Kit for Sustaining Luminescence of Luminescent Substrate and Method for Sustaining Luminescence of Luminescent Substrate” (SHIMADZU CORPORATION, priority 2024, published 2025)
“Also recorded” adds a separate entry of the source.

How the values were obtained:
Type in all cases: biochemical
picALuc [1] = experiment: Experiment 7: inhibition of luminescence reaction by substrate metabolites with or without NP-40; settings: metabolite 1 μM; for luminescence value on addition of substrate metabolite: picALuc 100 nM, nCTZ 8 μM, 60 minutes incubation; for suppression of the decreased ratio in the luminescence value by addition of a surfactant: NP-40 (+) versus NP-40 (−)
Protocol: CTM, CTO, or CTMD was added to a mixture solution having the composition described below so that a final concentration was 0 M or 1 μM, followed by incubation at room temperature for 60 minutes. The luminescence value was then measured. At this time, as the measurement device, a GloMax (registered trademark) Navigator Microplate Luminometer (manufactured by Promega) was used. The time indicating the maximum luminescence value (time from addition of the substrate) varies greatly depending on each condition. Therefore, in this experiment, the luminescence value immediately after the addition of the substrate was compared, rather than the maximum luminescence value, so that the amount of the substrate consumed due to the luminescence reaction and the amount of the substrate oxidation due to elapsed time were not taken into consideration. FIG. 10A is graphs showing the correlation between the relative light unit (vertical axis) and the presence or absence of the surfactant and the substrate metabolites (horizontal axis). FIG. 10B is graphs showing the relationship between the rate of decrease in the amount of luminescence due to the addition of the substrate metabolites (vertical axis) and the presence or absence of the surfactant (horizontal axis).
NP-40 (final concentration 0% or 0.01%) picALuc (final concentration 100 nM) nCTZ (final concentration 8 μM) […]
Buffer (137 mM NaCl, 9.6 mM KH2PO4, 2.7 mM KCl, pH 7.0, remainder)

NanoLuc = target: T1, NanoLuc (Oplophorus gracilirostris, UniProt Q9GV45, A31E/A60N/A81I/F95D/I117V/K70R/L54V/L99Q/M102K/N193R/P142E/Q151K/Q38R/Q45L/V71I/Y165I); experiment: Experiment 2: luminescence reaction of NanoLuc and CTZh in the presence of surfactant and ethanol; settings: luminescent enzyme NanoLuc for example 10 nM, CTZh, EtOH
T1 construct: purchased Promega
Protocol: The experiment was performed in the same manner as in Experiment 1 except that NanoLuc (manufactured by Promega) was used as a luminescent enzyme and NP-40 or CHAPS was used as a surfactant. FIG. 3A is graphs showing a change in luminescence intensity over time. […] FIG. 3B is graphs showing the correlation between the maximum value of the normalized luminescence intensity (vertical axis) and the concentration of the luminescent enzyme and the concentration of the surfactant (horizontal axis). FIG. 3C is graphs showing the correlation between the half-life of the luminescence reaction (horizontal axis) and the concentration of the luminescent enzyme and the concentration of the surfactant (vertical axis).

picALuc [2] = experiment: Experiment 1: luminescence reaction of picALuc and CTZh in the presence of surfactant and ethanol; settings: luminescent enzyme picALuc for example 1 nM, CTZh, EtOH
Protocol: When a luminescent enzyme and a luminescent substrate were allowed to react in the presence of a surfactant and an alcohol, how the luminescence characteristics of the luminescent substrate change was examined. First, the luminescent enzyme and the surfactant described below were diluted in a buffer (137 mM NaCl, 9.6 mM KH2PO4, 2.7 mM KCl, pH 7.0) to obtain an enzyme solution with different concentrations of the luminescent enzyme and the surfactant.
Also, coelenterazine h (CTZh), which is the luminescent substrate, was dissolved in ethanol (EtOH) so that a final concentration thereof was 2.4 mM, to obtain an ethanol solution of CTZh. […]
Then, 50 μL of the enzyme solution and 50 μL of the substrate solution were mixed. The luminescence value was measured immediately after mixing. […] FIG. 1A is graphs showing a change in luminescence intensity over time. […] FIG. 1B is graphs showing the correlation between the maximum value of the normalized luminescence intensity (vertical axis) and the concentration of the luminescent enzyme and the concentration of the surfactant (horizontal axis). FIG. 1C is graphs showing the correlation between the half-life of the luminescence reaction (horizontal axis) and the concentration of the luminescent enzyme and the concentration of the surfactant (vertical axis). […]

picALuc [3] = experiment: Experiment 8: LC-MS of substrate consumed and substrate metabolites produced in luminescence reaction; settings: NP-40 0.01% versus 0%, picALuc 100 nM, nCTZ 8 μM
Protocol: By LC-MS analysis of a reaction solution containing picALuc and nCTZ, the effect of a surfactant (NP-40) on the amount of the substrate (nCTZ) consumed and the amount of the substrate metabolites (CTM, CTO, CTMD) produced was examined.
A substrate solution (100 μL) having the following composition was added to an enzyme solution (100 μL) having the following composition, to prepare a reaction solution.
At 0 minutes of the luminescence reaction (before the addition of the substrate solution), 10 minutes after the luminescence reaction, or 60 minutes after the luminescence reaction, 1/1000 (volume ratio) of hydrochloric acid was added to the reaction solution to stop the luminescence reaction, and methanol, which was five times the amount of the reaction solution, was added, followed by centrifugation. Then, the supernatant was collected to remove the luminescent enzyme. After that, each reaction solution was analyzed with an LC-MS device to measure the respective amounts of nCTZ, CTM, CTO, and CTMD (FIG. 11). The measurement conditions at this time are as follows.
It was thought that the amount of nCTZ was greater than the actual amount when NP-40 was added due to ion effects. Therefore, it was normalized to the amount of nCTZ when NP-40 was not added. Furthermore, the fact that CTM, CTO, and CTMD were already present in the reaction solution at 0 minutes of luminescence reaction is thought to be caused by converting nCTZ to these compounds during storage of nCTZ. Therefore, the amount of nCTZ consumed and the respective amounts of CTM, CTO, and CTMD produced were calculated by subtracting the amount of each component that was present before the reaction (FIG. 12).

picALuc [4] = experiment: Experiment 3: luminescence reaction of picALuc and nCTZ with methanol and NP-40; settings: picALuc 100 nM, nCTZ 8 μM, methanol
Protocol: The experiment was performed in the same manner as in Experiment 1 except that methanol (MeOH) manufactured by FUJIFILM Wako Pure Chemical Corporation) was used as an alcohol, NP-40 was used as a surfactant, and native coelenterazine (nCTZ, final concentration 8 μM) (manufactured by FUJIFILM Wako Pure Chemical Corporation) was used as a luminescent substrate. At this time, the final concentration of the luminescent enzyme (picALuc) was set to 100 nM. FIG. 4 is a graph showing a change in luminescence intensity over time.

[5] = tested on: streptavidin-fused picALuc; experiment: Experiment 4: simulated detection system, biotinylated BSA detected with streptavidin-fused picALuc
Protocol: In this experiment, as a simulated detection system, biotinylated bovine serum albumin (BSA) was immobilized on a base of a 96-well plate and detection was performed using streptavidin-fused picALuc (FIG. 6A). Specifically, 100 μL of a biotinylated BSA solution (final concentration 10 μg/mL) was first added to each well. After each well was washed with a washing buffer (PBST (0.1% Tween)), blocking was performed by addition of 200 μL of a blocking buffer (20% Immnoblock (manufactured by KAC Co., ltd.) in PBS) to each well. After each well was washed with a washing buffer again, 100 μL of a streptavidin-fused picALuc solution (final concentration 1 μg/mL, diluted with 5% Immunoblock in PBST) was added to each well. Each well was washed with a washing buffer.
Then, immediately before the luminescent substrate was added, NP-40 was diluted with a buffer (PBS) so that the final concentration was 0.002 to 0.2%, and 100 μL of the resulting diluted solution was added to each well. Next, 100 μL of the substrate solution prepared in the same manner as in Experiment 1 was added to each well. The luminescence value was measured immediately after the substrate solution was added. At this time, as the measurement device, GloMax (registered trademark) Navigator Microplate Luminometer (manufactured by Promega) was used. FIG. 6B is a graph showing a change in luminescence intensity over time. […] FIG. 6C is a graph showing the correlation between the maximum value of the relative light unit (vertical axis) and the concentration of the surfactant (horizontal axis). FIG. 6D is a graph showing the correlation between the integrated value of the relative light unit (vertical axis) and the concentration of the surfactant (horizontal axis). The integrated value is the integrated value obtained for 30 minutes after the addition of the substrate solution.

T1 sequence (Q9GV45 other isoform, or with tags, fused parts or gaps with the stated changes): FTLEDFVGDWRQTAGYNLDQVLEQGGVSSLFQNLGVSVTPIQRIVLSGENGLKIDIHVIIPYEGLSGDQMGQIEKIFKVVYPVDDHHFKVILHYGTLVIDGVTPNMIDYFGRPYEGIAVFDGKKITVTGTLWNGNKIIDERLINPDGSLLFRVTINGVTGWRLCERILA

O=c1[nH]cc(-c2ccc(O)cc2)nc1Cc1ccccc1 [CTO, 3-benzyl-5-(4-hydroxyphenyl) pyrazin-2 (1H)-one]
luminescence value on addition of substrate metabolite (picALuc [1]; NP-40 (+) 0.01%): a decrease in the luminescence value was small
suppression of the decreased ratio in the luminescence value by addition of a surfactant (picALuc [1]): a tendency to significantly suppress the decreased ratio
luminescence value on addition of substrate metabolite (picALuc [1]; NP-40 (−)): a decrease in the luminescence value was observed

CC(CCC(=O)NCCC[N+](C)(C)CCCS(=O)(=O)O)C1CCC2C3C(O)CC4CC(O)CCC4(C)C3CC(O)C12C (centres unmarked) [CHAPS]
maximum value of the normalized luminescence intensity (NanoLuc): enhancement of the luminescence intensity was also observed
maximum value of the normalized luminescence intensity (picALuc [2]): enhancement of the luminescence intensity was also observed

poly(oxyethylene)=octylphenyl ether [NP-40]
amount of CTM produced when the surfactant was added (picALuc [3]): decreased
amount of CTMD produced when the surfactant was added (picALuc [3]): increased
amount of CTO produced when the surfactant was added (picALuc [3]): remained almost unchanged
amount of nCTZ consumed when the surfactant was added (picALuc [3]): increased
maximum value of the normalized luminescence intensity (NanoLuc): enhancement of the luminescence intensity was also observed
change in luminescence intensity over time (picALuc [4]): sustained luminescence and enhancement of the luminescence intensity were observed
maximum value of the relative light unit versus when NP-40 was not added ([5]; 0.1% NP-40): 2.2 times
integrated value of the relative light unit versus when NP-40 was not added ([5]; 0.1% NP-40, integrated for 30 minutes after addition of substrate solution): 3.2 times
maximum value of the relative light unit and sustained luminescence ([5]; NP-40 0.002 to 0.2%): an increase in the maximum value of the relative light unit and the sustained luminescence were observed dependently on the concentration
maximum value of the normalized luminescence intensity (picALuc [2]): enhancement of the luminescence intensity was also observed

O=C(Cc1ccc(O)cc1)Nc1ncc(-c2ccc(O)cc2)nc1Cc1ccccc1 [CTMD, coelenteramide]
suppression of the decreased ratio in the luminescence value by addition of a surfactant (picALuc [1]): a tendency to significantly suppress the decreased ratio
luminescence value on addition of substrate metabolite (picALuc [1]; NP-40 (−)): the luminescence value significantly decreased

Nc1ncc(-c2ccc(O)cc2)nc1Cc1ccccc1 [CTM, coelenteramine]
luminescence value on addition of substrate metabolite (picALuc [1]; NP-40 (+) 0.01%): a decrease in the luminescence value was clearly observed; also recorded: a decrease in the luminescence value was small
suppression of the decreased ratio in the luminescence value by addition of a surfactant (picALuc [1]): no significant suppression was observed
luminescence value on addition of substrate metabolite (picALuc [1]; NP-40 (−)): the luminescence value significantly decreased
